Laboratory results: the NIST ThermoML archive (doi:10.1016/j.jct.2016.02.009)
Values joined by “and” are separate entries in the source; they are usually repeats but may differ in a detail not shown here. Equal entries are not always repeated.

Experiment: molar heat capacity at constant pressure
Settings: 101.33 kPa, Small (less than 1 g) adiabatic calorimetry

CCCCCCCCCCn1cc[n+](C)c1.O=S(=O)([N-]S(=O)(=O)C(F)(F)F)C(F)(F)F
Settings	molar heat capacity at constant pressure
239.07 K, Crystal 2	641 J/K/mol
240 K, Crystal 2	651.3 J/K/mol
240.86 K, Crystal 2	665.1 J/K/mol
242.62 K, Crystal 2	694.9 J/K/mol
244.33 K, Crystal 2	733.6 J/K/mol
245.99 K, Crystal 2	789 J/K/mol
247.56 K, Crystal 2	885.2 J/K/mol
249 K, Crystal 1	1053 J/K/mol
249 K, Crystal 2	1053 J/K/mol
249.01 K, Crystal 1	1053 J/K/mol
250.61 K, Crystal 1	627.9 J/K/mol
252 K, Crystal 1	619.2 J/K/mol
252.45 K, Crystal 1	620.8 J/K/mol
254.29 K, Crystal 1	629.9 J/K/mol
256.12 K, Crystal 1	642.5 J/K/mol
257.94 K, Crystal 1	658.6 J/K/mol
259.72 K, Crystal 1	680.3 J/K/mol
260 K, Crystal 1	648.7 J/K/mol
261.48 K, Crystal 1	710 J/K/mol
263.19 K, Crystal 1	751.8 J/K/mol
263.96 K, Liquid	730.6 J/K/mol
264.85 K, Crystal 1	795.1 J/K/mol
265.87 K, Liquid	731.7 J/K/mol
266.46 K, Crystal 1	822.8 J/K/mol
267.69 K, Liquid	733 J/K/mol
268.04 K, Crystal 1	872.1 J/K/mol
269.51 K, Liquid	734.3 J/K/mol
269.56 K, Crystal 1	972.8 J/K/mol
270 K, Crystal 1	687.6 J/K/mol
271.33 K, Liquid	735.9 J/K/mol
273.16 K, Liquid	736.9 J/K/mol
274.98 K, Liquid	738.2 J/K/mol
276.81 K, Liquid	739.4 J/K/mol
277.33 K, Crystal 1	717.5 J/K/mol
277.33 K, Liquid	739.7 J/K/mol
278.63 K, Liquid	740.6 J/K/mol
278.84 K, Liquid	741.1 J/K/mol
280 K, Liquid	741.6 J/K/mol
280.45 K, Liquid	741.8 J/K/mol
280.56 K, Liquid	742.3 J/K/mol
282.28 K, Liquid	743.2 J/K/mol and 742.8 J/K/mol
284 K, Liquid	744.4 J/K/mol
284.1 K, Liquid	744.5 J/K/mol
285.72 K, Liquid	745.6 J/K/mol
285.92 K, Liquid	745.7 J/K/mol
287.44 K, Liquid	747.1 J/K/mol
287.75 K, Liquid	746.9 J/K/mol
289.16 K, Liquid	747.9 J/K/mol
289.57 K, Liquid	748.4 J/K/mol
290 K, Liquid	748.8 J/K/mol
290.88 K, Liquid	749.4 J/K/mol
291.4 K, Liquid	749.8 J/K/mol
292.6 K, Liquid	750.6 J/K/mol
293.22 K, Liquid	750.8 J/K/mol
294.32 K, Liquid	751.9 J/K/mol
295.05 K, Liquid	752.4 J/K/mol
296.04 K, Liquid	753.2 J/K/mol
296.87 K, Liquid	753.9 J/K/mol
297.77 K, Liquid	754.3 J/K/mol
298.15 K, Liquid	754.8 J/K/mol
298.69 K, Liquid	755.1 J/K/mol
299.49 K, Liquid	755.7 J/K/mol
300 K, Liquid	756.2 J/K/mol
301.26 K, Liquid	757.2 J/K/mol
303.08 K, Liquid	758.7 J/K/mol
304.91 K, Liquid	759.9 J/K/mol
306.73 K, Liquid	761.3 J/K/mol
308.56 K, Liquid	762.8 J/K/mol
310 K, Liquid	763.8 J/K/mol
310.38 K, Liquid	764.3 J/K/mol
312.21 K, Liquid	765.5 J/K/mol
314.03 K, Liquid	766.8 J/K/mol
315.86 K, Liquid	768.4 J/K/mol
317.69 K, Liquid	769.8 J/K/mol
319.51 K, Liquid	771.1 J/K/mol
320 K, Liquid	771.5 J/K/mol
321.34 K, Liquid	772.8 J/K/mol
323.17 K, Liquid	774.3 J/K/mol
324.99 K, Liquid	775.7 J/K/mol
326.82 K, Liquid	777.2 J/K/mol
328.64 K, Liquid	778.5 J/K/mol
330 K, Liquid	779.5 J/K/mol
330.47 K, Liquid	779.9 J/K/mol
332.29 K, Liquid	781.6 J/K/mol
334.12 K, Liquid	783.1 J/K/mol
335.95 K, Liquid	784.6 J/K/mol
337.77 K, Liquid	786 J/K/mol
339.6 K, Liquid	787.5 J/K/mol
340 K, Liquid	787.7 J/K/mol
341.42 K, Liquid	788.9 J/K/mol
343.25 K, Liquid	789.9 J/K/mol
345.08 K, Liquid	791.3 J/K/mol
346.91 K, Liquid	793.1 J/K/mol
348.74 K, Liquid	794.8 J/K/mol
350 K, Liquid	796 J/K/mol
350.57 K, Liquid	796.5 J/K/mol
352.4 K, Liquid	797.8 J/K/mol
354.23 K, Liquid	799.5 J/K/mol
356.06 K, Liquid	801.2 J/K/mol
357.89 K, Liquid	802.8 J/K/mol
359.72 K, Liquid	804.3 J/K/mol
360 K, Liquid	804.6 J/K/mol
361.55 K, Liquid	806 J/K/mol
363.37 K, Liquid	807.7 J/K/mol
365.2 K, Liquid	809.1 J/K/mol
367.03 K, Liquid	810.8 J/K/mol
368.86 K, Liquid	812.7 J/K/mol
370 K, Liquid	813.4 J/K/mol
